Data reported in patent publication US20060069132A1, “Azolecarboxamide herbicides” (priority 2004, published 2006).
Like-named read-outs stand apart in the source and are kept apart here.

How the values were obtained:
[1] = system: barnyardgrass; assay: Test B pre-/postemergence herbicide test; assay type: in vivo, Echinochloa crus-galli; conditions: for pest or weed control at 500 g/ha: 500 g ai/ha
Method in brief: (§1)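 Test chemicals in a non-phytotoxic solvent mixture with surfactant were applied preemergence to seeded species and postemergence to plants 2-18 cm tall (1- to 4-leaf stage); rice and barnyardgrass were also tested in a flooded paddy at the 2-leaf stage. Visual rating versus controls after 13-15 days in greenhouse, scale 0 (no effect) to 100 (complete control).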

[2] = system: Surinam grass; assay: Test B pre-/postemergence herbicide test; assay type: in vivo, Urochloa decumbens; conditions: for pest or weed control at 500 g/ha: 500 g ai/ha
Method in brief: (§2)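 Pre: seeds sown, then sprayed. Post: 1–4-leaf plants (2–18 cm) sprayed at the same time. Paddy: flooded, treated at 2-leaf stage. Formulation: non-phytotoxic solvent with surfactant. Greenhouse 13–15 days; visual 0–100 score relative to controls.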

[3] = system: cocklebur; assay: Test B pre-/postemergence herbicide test; assay type: in vivo, Xanthium strumarium; conditions: for pest or weed control at 500 g/ha: 500 g ai/ha
Method in brief: as §1

[4] = system: large crabgrass; assay: Test B pre-/postemergence herbicide test; assay type: in vivo, Digitaria sanguinalis; conditions: for pest or weed control at 500 g/ha: 500 g ai/ha
Method in brief: as §2

[5] = system: giant foxtail; assay: Test B pre-/postemergence herbicide test; assay type: in vivo, Setaria faberi; conditions: for pest or weed control at 500 g/ha: 500 g ai/ha
Method in brief: as §2

[6] = system: lambsquarters; assay: Test B pre-/postemergence herbicide test; assay type: in vivo, Chenopodium album; conditions: for pest or weed control at 500 g/ha: 500 g ai/ha
Method in brief: as §2

[7] = system: morningglory; assay: Test B pre-/postemergence herbicide test; assay type: in vivo, Ipomoea coccinea; conditions: for pest or weed control at 500 g/ha: 500 g ai/ha
Method in brief: as §1

[8] = system: pigweed; assay: Test B pre-/postemergence herbicide test; assay type: in vivo, Amaranthus retroflexus; conditions: for pest or weed control at 500 g/ha: 500 g ai/ha
Method in brief: as §2

[9] = system: velvetleaf; assay: Test B pre-/postemergence herbicide test; assay type: in vivo, Abutilon theophrasti
Method in brief: as §2

[10] = system: blackgrass; assay: Test B postemergence herbicide test; assay type: in vivo, Alopecurus myosuroides; conditions: Alopecurus myosuroides, post-emergence, 336 h, read-out: Blackgrass plant response rating
Method in brief: (§3)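 Paddy species grown to the 2-leaf stage under flooding; blackgrass sprayed postemergence at 2–18 cm (1- to 4-leaf stage). Plants kept in a greenhouse for 13 to 15 days, then visually rated against controls on 0 (no effect) to 100 (complete control).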

[11] = system: wheat; assay: Test B postemergence herbicide test; assay type: in vivo, Triticum aestivum; conditions: Triticum aestivum, post-emergence, 336 h, read-out: Wheat plant response rating
Method in brief: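 Scale 0–100: zero equals no visible effect, 100 complete control, judged by eye relative to controls. Timing: 13 to 15 days in greenhouse post-treatment. Growth stage at spraying: two leaves (paddy) or one to four leaves, 2–18 cm (postemergence).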

[12] = system: rice; assay: Test B flooded paddy test; assay type: in vivo, Oryza sativa; conditions: Oryza sativa, 336 h, 1000 g ai/ha, scale 0 to 100 (0 no effect, 100 complete control), read-out: Rice plant response rating
Method in brief: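 Plants grow to 1- to 4-leaf stage (2–18 cm) for postemergence spraying, or to 2-leaf stage for the paddy test. Formulated compound is applied. Greenhouse holding lasts 13–15 days. Response is scored visually relative to controls, 0 no effect to 100 complete control; a dash means no result.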

[13] = system: small flower umbrella sedge; assay: Test B flooded paddy test; assay type: in vivo, Cyperus difformis; conditions: Cyperus difformis, 336 h, 1000 g ai/ha, scale 0 to 100 (0 no effect, 100 complete control), read-out: Sedge, Umbrella plant response rating
Method in brief: as §3

[14] = system: ducksalad; assay: Test B flooded paddy test; assay type: in vivo, Heteranthera limosa; conditions: Heteranthera limosa, 336 h, 1000 g ai/ha, scale 0 to 100 (0 no effect, 100 complete control), read-out: Ducksalad plant response rating
Method in brief: as §3

[15] = system: barnyardgrass; assay: Test B flooded paddy test; assay type: in vivo, Echinochloa crus-galli; conditions: Echinochloa crus-galli, 336 h, 1000 g ai/ha, scale 0 to 100 (0 no effect, 100 complete control), read-out: Barnyardgrass plant response rating
Method in brief: as §3

[16] = 125 g ai/ha, 0 is no effect, 100 is complete control, preemergence
[17] = 125 g ai/ha, visual rating, scale 0 (no effect) to 100 (complete control)
[18] = postemergence, 500 g ai/ha, scale 0 to 100, 0 is no effect, 100 is complete control

Which results are given for CCNC(=O)c1ccc(F)c(NC(=O)C2CN(C(C)(C)C)N=C2CC)c1 (stereo not shown) [Compound 336, 1-(1,1-dimethylethyl)-3-ethyl-N-[5-[(ethylamino)carbonyl]-2-fluorophenyl]-4,5-dihydro-1H-pyrazole-4-carboxamide]?
Plant response rating (0 to 100 scale), Barnyardgrass [1, 16]: 100; pest or weed control at 125 g/ha ([1]; Echinochloa crus-galli, post-emergence, 125 g ai/ha, visual rating, scale 0 (no effect) to 100 (complete control), read-out: Barnyardgrass plant response rating): 10%; pest or weed control at 500 g/ha ([1]; Echinochloa crus-galli, post-emergence, postemergence, scale 0 to 100, 0 is no effect, 100 is complete control, read-out: Barnyardgrass plant response rating): 30%; pest or weed control at 500 g/ha ([1]; Echinochloa crus-galli, pre-emergence, visual rating, 0 = no effect, 100 = complete control, read-out: Plant response rating, Barnyardgrass): 100%; Plant response rating (0 to 100 scale), Surinam Grass [2, 16]: 90; pest or weed control at 125 g/ha ([2]; Urochloa decumbens, post-emergence, 125 g ai/ha, visual rating, scale 0 (no effect) to 100 (complete control), read-out: Surinam Grass plant response rating): 20%; pest or weed control at 500 g/ha ([2]; Urochloa decumbens, post-emergence, postemergence, scale 0 to 100, 0 is no effect, 100 is complete control, read-out: Surinam Grass plant response rating): 20%; pest or weed control at 500 g/ha ([2]; Urochloa decumbens, pre-emergence, visual rating, 0 = no effect, 100 = complete control, read-out: Plant response rating, Surinam Grass): 100%; Plant response rating (0 to 100 scale), Cocklebur [3, 16]: 10; pest or weed control at 125 g/ha ([3]; Xanthium strumarium, post-emergence, 125 g ai/ha, visual rating, scale 0 (no effect) to 100 (complete control), read-out: Cocklebur plant response rating): 0%; pest or weed control at 500 g/ha ([3]; Xanthium strumarium, post-emergence, postemergence, scale 0 to 100, 0 is no effect, 100 is complete control, read-out: Cocklebur plant response rating): 50%; pest or weed control at 500 g/ha ([3]; Xanthium strumarium, pre-emergence, visual rating, 0 = no effect, 100 = complete control, read-out: Plant response rating, Cocklebur): 40%; Plant response rating (0 to 100 scale), Crabgrass, Large [4, 16]: 90; pest or weed control at 125 g/ha ([4]; Digitaria sanguinalis, post-emergence, 125 g ai/ha, visual rating, scale 0 (no effect) to 100 (complete control), read-out: Crabgrass, Large plant response rating): 20%; pest or weed control at 500 g/ha ([4]; Digitaria sanguinalis, post-emergence, postemergence, scale 0 to 100, 0 is no effect, 100 is complete control, read-out: Crabgrass, Large plant response rating): 50%; pest or weed control at 500 g/ha ([4]; Digitaria sanguinalis, pre-emergence, visual rating, 0 = no effect, 100 = complete control, read-out: Plant response rating, Crabgrass, Large): 100%; Plant response rating (0 to 100 scale), Foxtail, Giant [5, 16]: 60; pest or weed control at 125 g/ha ([5]; Setaria faberi, post-emergence, 336 h, 125 g ai/ha, visual rating, scale 0 (no effect) to 100 (complete control), read-out: Foxtail, Giant plant response rating): 20%; pest or weed control at 500 g/ha ([5]; Setaria faberi, post-emergence, 336 h, postemergence, scale 0 to 100, 0 is no effect, 100 is complete control, read-out: Foxtail, Giant plant response rating): 40%; pest or weed control at 500 g/ha ([5]; Setaria faberi, pre-emergence, 336 h, visual rating, 0 = no effect, 100 = complete control, read-out: Plant response rating, Foxtail, Giant): 100%; Plant response rating (0 to 100 scale), Lambsquarters [6, 16]: 90; pest or weed control at 125 g/ha ([6]; Chenopodium album, post-emergence, 336 h, 125 g ai/ha, visual rating, scale 0 (no effect) to 100 (complete control), read-out: Lambsquarters plant response rating): 60%; pest or weed control at 500 g/ha ([6]; Chenopodium album, post-emergence, 336 h, postemergence, scale 0 to 100, 0 is no effect, 100 is complete control, read-out: Lambsquarters plant response rating): 90%; pest or weed control at 500 g/ha ([6]; Chenopodium album, pre-emergence, 336 h, visual rating, 0 = no effect, 100 = complete control, read-out: Plant response rating, Lambsquarters): 100%; Plant response rating (0 to 100 scale), Morningglory [7, 16]: 20; pest or weed control at 125 g/ha ([7]; Ipomoea, post-emergence, 336 h, 125 g ai/ha, visual rating, scale 0 (no effect) to 100 (complete control), read-out: Morningglory plant response rating): 40%; pest or weed control at 500 g/ha ([7]; Ipomoea, post-emergence, 336 h, postemergence, scale 0 to 100, 0 is no effect, 100 is complete control, read-out: Morningglory plant response rating): 70%; pest or weed control at 500 g/ha ([7]; Ipomoea, pre-emergence, 336 h, visual rating, 0 = no effect, 100 = complete control, read-out: Plant response rating, Morningglory): 70%; Plant response rating (0 to 100 scale), Pigweed [8, 16]: 100; pest or weed control at 125 g/ha ([8]; Amaranthus retroflexus, post-emergence, 336 h, 125 g ai/ha, visual rating, scale 0 (no effect) to 100 (complete control), read-out: Pigweed plant response rating): 60%; pest or weed control at 500 g/ha ([8]; Amaranthus retroflexus, post-emergence, 336 h, postemergence, scale 0 to 100, 0 is no effect, 100 is complete control, read-out: Pigweed plant response rating): 70%; pest or weed control at 500 g/ha ([8]; Amaranthus retroflexus, pre-emergence, 336 h, visual rating, 0 = no effect, 100 = complete control, read-out: Plant response rating, Pigweed): 100%; Plant response rating (0 to 100 scale), Velvetleaf [9, 16]: 30; pest or weed control at 125 g/ha ([9]; Abutilon theophrasti, post-emergence, 336 h, 125 g ai/ha, visual rating, scale 0 (no effect) to 100 (complete control), read-out: Velvetleaf plant response rating): 20%; pest or weed control at 500 g/ha ([9]; Abutilon theophrasti, post-emergence, 336 h, postemergence, 500 g ai/ha, scale 0 to 100, 0 is no effect, 100 is complete control, read-out: Velvetleaf plant response rating): 30%; pest or weed control at 125 g/ha [10, 17]: 10%; pest or weed control at 500 g/ha [10, 18]: 20%; plant injury at 125 g/ha [11, 17]: 0%; plant injury at 500 g/ha [11, 18]: 10%; plant injury at 1000 g/ha [12]: 80%; pest or weed control at 1000 g/ha [13]: 80%; pest or weed control at 1000 g/ha [14]: 90%; pest or weed control at 1000 g/ha [15]: 90%
